Consider 29 compounds from patent US5665719A, “Benzoxazinone and benzopyrimidinone piperidinyl tocolytic oxytocin receptor antagonists” (Merck & Co., Inc., priority 1995, dated 1997).

Molecules are shown by their SMILES. Read-outs that look alike come from different tables or passages of the source.

In general, IC50 refers to the concentration at which inhibition is half-maximal.

The assay has as its target T1, uterine OT receptors (Rattus norvegicus, UniProt P70536).
T1 construct: from tissue; host or cells: uterus of diethylstilbestrol dipropionate (DES)-treated rats, crude membrane preparation
T1 sequence (P70536 1-388): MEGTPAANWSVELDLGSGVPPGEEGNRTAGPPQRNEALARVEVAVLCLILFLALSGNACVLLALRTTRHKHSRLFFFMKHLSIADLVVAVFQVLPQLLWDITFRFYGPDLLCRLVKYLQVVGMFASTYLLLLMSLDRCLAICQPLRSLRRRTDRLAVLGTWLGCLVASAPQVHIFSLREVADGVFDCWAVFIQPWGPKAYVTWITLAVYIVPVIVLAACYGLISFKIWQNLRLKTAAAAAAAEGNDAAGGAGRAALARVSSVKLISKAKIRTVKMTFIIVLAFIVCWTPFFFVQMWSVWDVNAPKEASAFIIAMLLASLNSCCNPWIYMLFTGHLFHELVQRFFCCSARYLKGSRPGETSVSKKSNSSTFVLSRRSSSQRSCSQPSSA
As to the kind of experiment: [3H]Oxytocin (OT) radioligand binding to uterine OT receptors, crude uterine membranes from DES-treated rats. As to conditions: for inhibition at 10 µM: inhibition at 10,000 nM, read-out: Result For [3H]OT (% inhib. at 10,000 nM); for inhibition at 10 µM / inhibition at 1 µM: 1 nM [3H]OT, pH 7.4; for inhibition at 1 µM: inhibition at 1,000 nM, read-out: Result For [3H]OT (% inhib. at 1,000 nM). As to the method:
Competition studies were conducted at equilibrium (60 minutes; 22° C.) using 1 nM[^3 H]OT in the following assay buffer: 50 mM Tris-HCl, 5 mM MgCl2, and 0.1% BSA, pH 7.4. Nonspecific binding (10% of the total binding) was determined using 1 μM unlabeled OT and the binding reaction was terminated by filtration through glass fiber filters using a cell harvester (model 7019, Skatron, Inc., Sterling, Va.).
IC50 values were determined for the [^3 H]OT and [^3 H]AVP binding assays by linear regression of the relation log concentration of compound vs. percent inhibition of specific binding. Data is either reported as a given percentage of inhibition at a specified concentration,or if an IC50 was calculated, as a nanomolar concentration.

`COc1cc(OC2CCN(C(=O)CCCN)CC2)ccc1C(=O)N1CCC(N2C(=O)OCc3ccccc32)CC1` [Example 30, 1-(1-(4-(1-(4-Aminobutanoyl)-4-piperidinyloxy)-2-methoxybenzoyl)piperidin-4-yl)-1,2-dihydro-4(H)-3,1-benzoxazin-2-one] displayed an IC50 of 69 nM.

`COc1ccc(C(=O)N2CCC(N3C(=O)Cc4ccccc43)CC2)c(OC)c1` [Example 55, 1-(1-(2,4-dimethoxybenzoyl)-4-piperidyl)indol-2-one] yielded a half-inhibitory concentration (IC50) of 6200 nM. In the case of `COc1ccc(C(=O)N2CCC(N3C(=O)N(C)Cc4ccccc43)CC2)c(OC)c1` [Example 36, 1-(2,4-Dimethoxybenzoylpiperidin-4-yl)-3,4-dihydro-3-methylquinazolin-2(1H)-one], the inhibition at 10 µM (60 minutes, 22° C.) stood at 48%. The same measure, in the same setting: for `O=C(c1ccc(OCC2CCCNC2)cc1)N1CCC(N2C(=O)OCc3ccccc32)CC1` (centres unmarked) [Example 32, 1-(1-(4-(3-Piperidinylmethoxy)benzoyl)piperidin-4-yl)-1,2-dihydro-4(H)-3,1-benzoxazin-2-one] the value was 78%. With `O=C(c1ccc(OC2CCNCC2)cc1Cl)N1CCC(N2C(=O)OCc3ccccc32)CC1` [Example 52, 1-(1-(4-(4-Piperidinyloxy)-2-chlorobenzoyl)piperidin-4-yl)-1,2-dihydro-4(H)-3,1-benzoxazin-2-one], the half-maximal inhibitory concentration (IC50) worked out at 4300 nM. On the same count and under the same terms, under `COc1cc(OCCCN)ccc1C(=O)N1CCC(N2C(=O)OCc3ccccc32)CC1` [Example 12, 1-(1-(4-(3-Aminopropoxy)-2-methoxybenzoyl)piperidin-4-yl)-1,2-dihydro-4(H)-3,1-benzoxazin-2-one] stands 410 nM; under `COc1cc(OCCCNC(=O)C2CCNCC2)c(Cl)cc1C(=O)N1CCC(N2C(=O)OCc3ccccc32)CC1` [Example 15, 1-(1-(4-(3-(4-Piperidinylcarbonylamino)propoxy)-6-methoxy-3-chlorobenzoyl)piperidin-4-yl)-1,2-dihydro-4(H)-3,1-benzoxazin-2-one], 56 nM. As for `COc1ccc(C(=O)N2CCC(N3C(=O)OC(C)(C)c4ccccc43)CC2)c(OC)c1` [Example 61, 1-(1-(2,4-dimethoxybenzoyl)piperidin-4-yl)-4,4-dimethyl-1,2-dihydro-4(H)-3,1-benzoxazin-2-one], under “60 minutes, 22° C.”, the inhibition at 10 µM came out at 64%.

Take `Cc1cc(OC2CCN(C(=O)OC(C)(C)C)CC2)ccc1C(=O)N1CCC(N2C(=O)OCc3ccccc32)CC1` [Example 43, 1-(1-(4-(N-t-Butoxycarbonyl-4-piperidinyloxy)-2-methylbenzoyl)piperidin-4-yl)-1,2-dihydro-4(H)-3,1-benzoxazin-2-one]: the inhibition at 1 µM (60 minutes, 22° C.) was 59%. On to `COc1ccc(C(=O)N2CCC(N3C(=O)OCc4sccc43)CC2)c(OC)c1` [Example 63, 1-(1-(2,4-dimethoxybenzoyl)piperidin-4-yl)-1,2-dihydro-4 (H)-3,1-thienoxazin-2-one], for which, for the setting “competition vs 1 nM [3H]OT, 60 minutes, 22° C., pH 7.4, rat uterus membranes, read-out: Result For [3H]OT (IC50)”, the IC50 is 590 nM. Regarding `COc1cc(OC)c(C(=O)N2CCC(N3C(=O)OCc4ccccc43)CC2)c(OC)c1` [Example 1], the inhibition at 10 µM (60 minutes, 22° C.) came to 61%. Regarding `COc1cc(OC2CCN(C(=O)OC(C)(C)C)CC2)ccc1C(=O)N1CCC(N2C(=O)COc3ccccc32)CC1` [Example 41, 4-(1-(4-(4-(1-t-Butyloxycarbonyl)piperidinyloxy)-2-methoxybenzoyl)piperidin-4-yl)-(2H)-1,4-benzoxazin-3(4H)-one], where the note is “60 minutes, 22° C.”, the inhibition at 1 µM worked out at 42%.

`COc1cc(OCCCNS(C)(=O)=O)ccc1C(=O)N1CCC(N2C(=O)OCc3ccccc32)CC1` [Example 17, 1-(1-(4-(3-((Methylsulfonyl)amino)propoxy)-2-methoxybenzoyl)piperidin-4-yl)-1,2-dihydro-4(H)-3,1-benzoxazin-2-one] showed an IC50 of 81 nM. Still for that read-out and setting: under `CCN(CC)CCS(=O)(=O)N1CCC(Oc2ccc(C(=O)N3CCC(N4C(=O)OCc5ccccc54)CC3)c(OC)c2)CC1` [Example 46, 1-(1-(4-(1-(Diethylaminoethylsulfonyl)-4-piperidinyloxy)-2-methoxybenzoyl)piperidin-4-yl)-1,2-dihydro-4(H)-3,1-benzoxazin-2-one] stands 23 nM. With `COc1cc(OCCCNC(=O)C2CCNCC2)ccc1C(=O)N1CCC(N2C(=O)OCc3ccccc32)CC1` [Example 14, 1-(1-(4-(3-(4-Piperidinylcarbonylamino)propoxy)-2-methoxybenzoyl)piperidin-4-yl)-1,2-dihydro-4(H)-3,1-benzoxazin-2-one], the half-inhibitory concentration (IC50) was found to be 74 nM. Compound `COc1cc(OCCCN2C(=O)CN(C)C2=O)ccc1C(=O)N1CCC(N2C(=O)OCc3ccccc32)CC1` [Example 22, 1-(1-(4-(3-(1-Methylimidazoline-2,4-dione-3-yl)propoxy)-2-methoxybenzoyl)piperidin-4-yl)-1,2-dihydro-4(H)-3,1-benzoxazin-2-one] registered an IC50 of 260 nM. On to `COc1ccc(C(=O)N2CCC(N3C(=O)OCc4ccccc43)CC2C#N)c(OC)c1` (centres unmarked) [Example 60, 1-(1-(2,4-dimethoxybenzoyl)-2-cyanopiperidin-4-yl)-1,2-dihydro-4(H)-3,1-benzoxazin-2-one], for which the inhibition at 10 µM (60 minutes, 22° C.) was determined as 70%. Still for that read-out and setting: under `O=C(c1cc2ccccc2[nH]1)N1CCC(N2C(=O)OCc3ccccc32)CC1` [Example 4] stands 78%. For `COc1cc(C(=O)N2CCN(C(=O)OC(C)(C)C)CC2)ccc1C(=O)N1CCC(N2C(=O)OCc3ccccc32)CC1` [Example 39, 1-(1-(4-(4-(t-Butyloxycarbonyl)piperazin-1-ylcarbonyl)-2-methoxybenzoyl)piperidin-4-yl)-1,2-dihydro-4(H)-3,1-benzoxazin-2-one], the inhibition at 1 µM (60 minutes, 22° C.) came to 46%. On to `COc1cc(OC2CCN(C(=O)Cc3cnc[nH]3)CC2)ccc1C(=O)N1CCC(N2C(=O)OCc3ccccc32)CC1` [Example 45, 1-(1-(4-(1-(4(5)-Imidazolylacetyl)-4-piperidinyloxy)-2-methoxybenzoyl)piperidin-4-yl)-1,2-dihydro-4(H)-3,1-benzoxazin-2-one], for which the 50% inhibitory concentration (IC50) is 44 nM. On to `CC(C)(C)OC(=O)N1CCC(C(=O)NCCCOc2ccc(C(=O)N3CCC(N4C(=O)OCc5ccccc54)CC3)c(O)c2)CC1` [Example 49, 1-(1-(4-(3-(N-t-Butyloxycarbonylpiperidin-4-ylcarbonylamino)propoxy)-2-hydroxybenzoyl)piperidin-4-yl)-1,2-dihydro-4(H)-3,1-benzoxazin-2-one], for which the inhibition at 1 µM (60 minutes, 22° C.) was 72%. Consider `CC(=O)N(C)CCCOc1ccc(C(=O)N2CCC(N3C(=O)OCc4ccccc43)CC2)cc1` [Example 24, 1-(1-(4-(3-(N-Methyl(acetylamino))propoxy)benzoyl)piperidin-4-yl)-1,2-dihydro-4(H)-3,1-benzoxazin-2-one], for which the IC50 was determined as 550 nM. Still for that read-out and setting: under `O=C(/C=C/c1ccccc1)N1CCC(N2C(=O)OCc3ccccc32)CC1` [Example 7, 1-(1-(Cinnamoyl)piperidin-4-yl)-1,2-dihydro-4(H)-3,1-benzoxazin-2-one] stands 6200 nM. Same read-out and setting: under `COc1ccc(C(=O)N2CCC(N3C(=O)OCc4ccccc43)CC2)c([N+](=O)[O-])c1` [Example 44, 1-(1-(4-Methoxy-2-nitrobenzoyl)piperidin-4-yl)-1,2-dihydro-4(H)-3,1-benzoxazin-2-one] stands 5000 nM. Take `COc1ccc(C(=O)N2CC(N3C(=O)OCc4ccccc43)C2)c(OC)c1` [Example 57, 1-(1-(2,4-Dimethoxybenzoyl)azetidin-3-yl)-1,2-dihydro-4(H)-3,1-benzoxazin-2-one]: the inhibition at 10 µM (60 minutes, 22° C.) worked out at 54%. On the same count and under the same terms, under `O=C(c1ccccn1)N1CCC(N2C(=O)OCc3ccccc32)CC1` [Example 3] stands 40%. On to `COc1cc(OC2CCN(S(=O)(=O)CCCN(C)C3CC3)CC2)ccc1C(=O)N1CCC(N2C(=O)OCc3ccccc32)CC1` [Example 66, 1-(1-(4-(1-((3-N-Cyclopropyl-N-methylamino)propylsulfonyl)piperidin-4-yloxy)-2-methoxybenzoyl)piperidin-4-yl)-1,2-dihydro-4(H)-3,1-benzoxazin-2-one], for which the IC50 worked out at 25 nM. The same measure, in the same setting: under `CCOC(=O)CN1CCC(Oc2ccc(C(=O)N3CCC(N4C(=O)OCc5ccccc54)CC3)c(OC)c2)CC1` [Example 48, 1-(1-(4-(1-(Ethoxycarbonylmethyl)-4-piperidinyloxy)-2-methoxybenzoyl)piperidin-4-yl)-1,2-dihydro-4(H)-3,1-benzoxazin-2-one] stands 340 nM; under `O=C(Nc1ccc(CC(=O)N2CCC(N3C(=O)OCc4ccccc43)CC2)cc1)c1ccc2[nH]cnc2c1` [Example 9, 1-(1-(4-((5-Benzimidazolylcarbonyl)amino)phenylacetyl)piperidin-4-yl)-1,2-dihydro-4(H)-3,1-benzoxazin-2-one], 280 nM.
